Experimental data: patent US20030091533A1, “Regulation of mononuclear phagocyte stimulation” (priority 2001, published 2003)
Where “and” joins values, the source holds several entries; their conditions need not be identical. Equal entries are not always repeated. Marks after values point to notes of the source that are not given here.

Key:
LPS-stimulated AM = assay: Intracellular oxidative burst, DCFH oxidation assay, AM; type: cell-based, human; settings: for oxidative burst in LPS-stimulated AM with IFN-γ: preincubated 24 hour with cytokine 20 ng/ml in the presence of IFN-γ 200 U/ml, LPS 1 μg/ml 20 hour; for LPS-stimulated oxidative burst in AM: preincubation 24 hour with cytokine 20 ng/ml, then LPS 1 μg/ml 20 hour, without IFN-γ
Method: Intracellular oxidative capacity was assessed essentially as described by Bass et al., J. Immunol., 130:1910-1917 (1983) (incorporated herein by reference) as described infra.
Cells (0.2×10^6) were preincubated for 24 hour with IL-9 or IL-4 (20 ng/ml) in the presence of IFN-γ (200 U/ml) before stimulation for 20 hour with LPS (1 μg/ml). The intracellular oxidative capacity was measured through the DCFH oxidation assay as describe herein. FIG. 3 depicts the effect of IFN-γ on the inhibition mediated by IL-9 and IL-4 on the oxidative burst in LPS-stimulated PBM (A) and AM (B).
Table 1. Specific blockade of the IL-9 inhibitory effect on oxidative burst in LPS-15 stimulated PBM and AM by anti-hIL-9R mAb. Cells (0.2×10^6) were preincubated with neutralizing mAb against hIL-9R (AH9R7, 10 μg/ml), or with control mIgG2b (10 μg/ml), 1 hour before incubation with IL-9 (20 ng/ml) for 24 hour without removing mAb, and stimulated by LPS (1 μg/ml) for 20 h. Intracellular oxidative capacity was evaluated by the DCFH oxidation assay. Data are means±SEM obtained from three experiments, triplicate conditions being performed in each experiment. *P<0.001 compared with cells preincubated with IL-9 (with or without control mIgG2b).
Intracellular oxidative capacity was assessed as described by Bass et al., (Bass et al., J. Immunol. 130:1910-1917 (1983)). Briefly, the PBM and AM samples were distributed in 96-well plates with flat bottoms (Falcon) to provide 0.2×10^6cells/well. The cells were preincubated for 24 hour at 37° C., 5% CO2 with cytokines (200 u/ml for IFN-y, 20 ng/ml for IL-9 and 20 ng/ml; for IL-4) in cRPMI before being stimulated for 20 hours with LPS (1 μg/ml) without removing the cytokines. At the end of incubation with cytokines and/or LPS, cells were loaded for 15 min with 15 μM DCFH-DA in cRPMI which, after passive penetration into cells, is hydrolyzed into nonfluorescent polar DCFH and trapped inside the cells. DCFH is then oxidized into highly fluorescent DCF according to the intracellular amount of hydrogen peroxide (H2O2) produced by the respiratory burst. After three washings with phosphate-buffered saline (PBS, pH 7.4), cells were lysed in 0.1% v/v Triton X100 (Sigma) in PBS, and fluorescence was quantified in a computerized microplate spectrofluorimeter (Packard Instruments, Downers Grove, Ill., USA) at 485 nm excitation/530 nm emission wavelengths. DCF concentrations were deduced from a standard curve of known concentrations of fluorescent DCF (ranging from 0.08 to 10 μM in lysis buffer) Results were corrected for total protein concentration determined in cell lysates by the bicinchoninic acid-based method (Pierce, Rockford, Ill., USA), and were expressed as nmoles DCF/mg cell protein.

TLR4 = TLR4 surface expression on PBM by FACS; type: cell-based, human; settings: for TLR4 expression (MFI): PBM preincubated 24 hour, 20 ng/ml IL-9 or IL-4, 200 U/ml IFN-γ, means±SD, medium 73 ± 2; for TLR4 expression on the surface of PBM compared with medium alone: preincubated for 24 hour
Method: Table 2. Cells (0.2×10^6) were preincubated for 24 hour with cytokines (20 ng/ml for IL-9 or IL-4 and 200 U/ml for IFN-γ), before the assessment of LPS receptor expression by immunostaining using anti-human CD14 mAb conjugated to FITC and anti-human TLR4 rabbit Ab followed by mouse anti-rabbit IgG (MAR-FITC). Cell-associated fluorescence was evaluated by FACS and expressed as mean fluorescence intensity (MFI). Autofluorescence of PBM was negligible (MFI: 3±1). Data are means±SD (n=3), and are representative of two experiments. *P<0.05 compared with cells preincubated with medium.
Additional stainings for CD14 and Toll-like receptor (TLR)-4 were performed on PBM preincubated for 24 hour with cytokines, using respectively FITC-conjugated anti-CD14 mAb (clone MøP9, mIgG2b, Becton Dickinson) and anti-TLR4 rabbit Ab (Santa Cruz, Calif.) followed by F (ab′)2 fragments of mouse anti-rabbit IgG (MAR)-FITC.

For “IL-4: Th2 cytokine interleukin-4 used as comparator, 20 ng/ml”, the “oxidative burst in LPS-stimulated AM with IFN-γ” value (LPS-stimulated AM) was 13.8±1.3 nmoles DCF/mg protein, the “LPS-stimulated oxidative burst in AM” value (LPS-stimulated AM) was 6.1±0.4 nmoles DCF/mg protein and the “TLR4 expression (MFI)” value (TLR4) was 58 ± 1* MFI. The “TLR4 expression on the surface of PBM compared with medium alone” value (from here on “TLR4 expression … compared with medium alone”) (TLR4) was “down regulated”.

In the case of “IL-9: Human IL-9 purified from SF9 insect cell cultures infected with recombinant baculovirus”, the “Oxidative burst (nmoles DCF/mg protein)” value (LPS-stimulated AM; Table 1, AM, mAb 10 μg/ml 1 hour before IL-9 20 ng/ml 24 hour, LPS 1 μg/ml 20 h, means±SEM, medium 5.8 ± 0.6) is reported as 6.5 ± 0.5 nmoles DCF/mg protein, the “oxidative burst in LPS-stimulated AM with IFN-γ” value (LPS-stimulated AM) is reported as 6.6±1.2 nmoles DCF/mg protein and the “LPS-stimulated oxidative burst in AM” value (LPS-stimulated AM) is reported as 6.5±0.5 nmoles DCF/mg protein and 6.5±0.6 nmoles DCF/mg protein. The “TLR4 expression (MFI)” value (TLR4) was 71 ± 4 MFI and the “TLR4 expression … compared with medium alone” value (TLR4) was “not significantly different”.

B1: IFN-γ: Interferon gamma, primes mononuclear phagocytes, 200 U/ml (protein, UniProt P01579 24-161, looked up)
Interferon gamma: QDPYVKEAENLKKYFNAGHSDVADNGTLFLGILKNWKEESDRKIMQSQIVSFYFKLFKNFKDDQSIQKSVETIKEDMNVKFFNSNKKKRDDFEKLTNYSVTDLNVQRKAIHELIQVMAELSPAAKTGKRKRSQMLFRG
B1 was tested, and the “effect on LPS-stimulated oxidative burst in AM” value (LPS-stimulated AM; preincubation 24 hour, LPS 20 hour) was “slightly increased”, the “TLR4 expression (MFI)” value (TLR4) was 82 ± 2* MFI and the “TLR4 expression … compared with medium alone” value (TLR4) was “increased”.
